The text below walks through data of US20240199546A1, “INHIBITORS OF SOLUTE CARRIER FAMILY 6A MEMBER 19 (SLC6A19) AND METHODS OF USE THEREOF” (Maze Therapeutics, Inc., priority 2022, published 2024).

Where only a bound is given, the exact number is not on record here.

The target in the assay is T1, human SLC6A19 and TMEM27 (Homo sapiens, UniProt Q695T7).
T1 construct: expressed in transfected cells
T1 sequence (Q695T7 1-634): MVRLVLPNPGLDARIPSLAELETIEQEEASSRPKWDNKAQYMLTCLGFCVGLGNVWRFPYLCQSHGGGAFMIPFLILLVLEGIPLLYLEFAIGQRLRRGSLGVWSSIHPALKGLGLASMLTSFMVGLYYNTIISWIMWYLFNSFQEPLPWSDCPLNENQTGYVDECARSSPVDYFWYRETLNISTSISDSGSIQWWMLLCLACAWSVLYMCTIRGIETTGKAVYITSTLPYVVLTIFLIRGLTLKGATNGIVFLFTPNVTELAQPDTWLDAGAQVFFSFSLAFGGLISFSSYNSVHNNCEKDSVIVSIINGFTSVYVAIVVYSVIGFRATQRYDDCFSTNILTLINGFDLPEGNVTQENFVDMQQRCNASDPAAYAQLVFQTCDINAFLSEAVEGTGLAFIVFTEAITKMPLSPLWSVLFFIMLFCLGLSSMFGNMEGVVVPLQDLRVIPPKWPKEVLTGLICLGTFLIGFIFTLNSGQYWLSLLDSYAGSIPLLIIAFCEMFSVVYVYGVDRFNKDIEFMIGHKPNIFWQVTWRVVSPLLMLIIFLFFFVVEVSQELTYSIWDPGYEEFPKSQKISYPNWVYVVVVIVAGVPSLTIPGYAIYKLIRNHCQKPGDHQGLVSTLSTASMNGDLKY
T1 sequence (Q9HBJ8 15-222 partner): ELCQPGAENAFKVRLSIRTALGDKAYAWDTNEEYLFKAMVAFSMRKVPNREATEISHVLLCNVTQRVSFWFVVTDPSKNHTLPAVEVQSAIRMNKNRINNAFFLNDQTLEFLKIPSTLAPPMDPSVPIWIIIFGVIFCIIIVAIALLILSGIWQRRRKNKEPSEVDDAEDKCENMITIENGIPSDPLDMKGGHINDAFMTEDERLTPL
As to the kind of experiment: Radiolabelled (3H) leucine uptake in CHO cells with doxycycline-inducible expression of human SLC6A19 and TMEM27 (Example B-1). The class given is cell-based. As to conditions: CHO cells with doxycycline-inducible expression of human SLC6A19 and TMEM27, read-out: SLC6A19_Radioligand Uptake Assay IC50. Put shortly:
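CHO cells were induced with doxycycline for 18 h at 37 °C, washed in HBSS, then exposed to compounds for 1 h: 8-point, 3-fold dilutions in duplicate, 0.5% DMSO final. Uptake measured by scintillation counting after 2 h shaking. Activity normalized with positive control as 0% and DMSO as 100%.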
`CC1(C(=O)NCc2cc3cc(Cl)c(OCC4CC(F)(F)C4)cc3[nH]2)CC1` [Compound 353, N-((5-chloro-6-((3,3-difluorocyclobutyl)methoxy)-1H-indol-2-yl)methyl)-1-methylcyclopropane-1-carboxamide]: the IC50 – broadly, the concentration that inhibits the measured activity by half – turned out to be 1930 nM.
Under `O=C(NCc1cc2cc(OC(F)(F)F)c(CCc3cocn3)cc2[nH]1)N1CCC1` [Compound 467, N-((6-(2-(oxazol-4-yl)ethyl)-5-(trifluoromethoxy)-1H-indol-2-yl)methyl)azetidine-1-carboxamide] stands 145 nM; under `Cc1cc(COc2cc3[nH]c(CNC(=O)CC(F)F)cc3cc2Cl)on1` [Compound 519, N-((5-chloro-6-((3-methylisoxazol-5-yl)methoxy)-1H-indol-2-yl)methyl)-3,3-difluoropropanamide], 118 nM; under `O=C(NCc1cc2cc(C3CC3)c(OCc3ccon3)cc2[nH]1)N1CCC1` [Compound 653, N-((5-cyclopropyl-6-(isoxazol-3-ylmethoxy)-1H-indol-2-yl)methyl)azetidine-1-carboxamide], 387 nM.
As for `CC1(C(=O)NCc2cc3cc(Cl)c(OCC4COC4)cc3[nH]2)CC1` [Compound 336, N-((5-chloro-6-(oxetan-3-ylmethoxy)-1H-indol-2-yl)methyl)-1-methylcyclopropane-1-carboxamide], the IC50 amounted to 1190 nM.
For the compound `CCc1cc2cc(CNC(=O)C3(C)CC3)[nH]c2cc1OCc1ccon1` [Compound 61, N-((5-ethyl-6-(isoxazol-3-ylmethoxy)-1H-indol-2-yl)methyl)-1-methylcyclopropane-1-carboxamide], the half-maximal inhibitory concentration (IC50) was determined as 297 nM.
With `Cc1cc(COc2cc3[nH]c(CNC(=O)C4OCCC4(F)F)cc3cc2Cl)on1` (stereo not drawn) [Compound 306, N-((5-chloro-6-((3-methylisoxazol-5-yl)methoxy)-1H-indol-2-yl)methyl)-3,3-difluorotetrahydrofuran-2-carboxamide], the half-inhibitory concentration (IC50) is 633 nM.
Under `Cc1cc(COc2cc3[nH]c(CNC(=O)C4(C)CC4)cc3cc2Cl)ns1` [Compound 399, N-((5-chloro-6-((5-methylisothiazol-3-yl)methoxy)-1H-indol-2-yl)methyl)-1-methylcyclopropane-1-carboxamide] stands 429 nM.
Turning to `Cc1cc(CC(C)c2ccc3cc(CNC(=O)C4(C)CC4)[nH]c3c2)no1` (stereo not drawn) [Compound 153, 1-methyl-N-((6-(1-(5-methylisoxazol-3-yl)propan-2-yl)-1H-indol-2-yl)methyl) cyclopropane-1-carboxamide], the 50% inhibitory concentration (IC50) was found to be 1960 nM.
As for `O=C(NCc1cc2cc(Cl)c(OCc3cscn3)cc2[nH]1)C1CC12CC2` (stereo not drawn) [Compound 553, N-((5-chloro-6-(thiazol-4-ylmethoxy)-1H-indol-2-yl)methyl)spiro[2.2]pentane-1-carboxamide], the IC50 was 342 nM.
Under `CO[C@@H](C)C(=O)NCc1cc2cc(Cl)c(OCc3cc(C)no3)cc2[nH]1` [Compound 313, (S)-N-((5-chloro-6-((3-methylisoxazol-5-yl)methoxy)-1H-indol-2-yl)methyl)-2-methoxypropanamide] stands 125 nM.
Regarding `O=C(NCc1cc2cc(Cl)c(OCc3cscn3)cc2[nH]1)[C@@H]1CCOC1` [Compound 316, (R)-N-((5-chloro-6-(thiazol-4-ylmethoxy)-1H-indol-2-yl)methyl)tetrahydrofuran-3-carboxamide], the IC50 was 284 nM.
As for `Cc1cc(COc2cc3[nH]c(CNC(=O)C45CCC(CC4)O5)cc3cc2Cl)on1` [Compound 296, N-((5-chloro-6-((3-methylisoxazol-5-yl)methoxy)-1H-indol-2-yl)methyl)-7-oxabicyclo[2.2.1]heptane-1-carboxamide], the half-inhibitory concentration (IC50) worked out at 976 nM.
Consider `COC(C)C(=O)NCc1cc2cc(Cl)c(OCc3cscn3)cc2[nH]1` (stereo not drawn) [Compound 271, N-((5-chloro-6-(thiazol-4-ylmethoxy)-1H-indol-2-yl)methyl)-2-methoxypropanamide], for which the IC50 is 515 nM.
As for `CC1(C(=O)NCc2cc3cc(Cl)c(OCc4cscn4)cc3[nH]2)CCO1` (stereo not drawn) [Compound 260, N-((5-chloro-6-(thiazol-4-ylmethoxy)-1H-indol-2-yl)methyl)-2-methyloxetane-2-carboxamide], the half-maximal inhibitory concentration (IC50) worked out at 2350 nM.
In the case of `COCCOCC(=O)NCc1cc2cc(Cl)c(OCc3cc(C)no3)cc2[nH]1` [Compound 299, N-((5-chloro-6-((3-methylisoxazol-5-yl)methoxy)-1H-indol-2-yl)methyl)-2-(2-methoxyethoxy)acetamide], the IC50 is more than 9060 nM.
As for `CCOCCOc1cc2[nH]c(CNC(C)=O)cc2cc1Cl` [Compound 459, N-((5-chloro-6-(2-ethoxyethoxy)-1H-indol-2-yl)methyl)acetamide], the IC50 came to 505 nM.
In the case of `O=C(NCc1cc2cc(Cl)c(OCc3cscn3)cc2[nH]1)C1(C(F)(F)F)CC1` [Compound 144, N-((5-chloro-6-(thiazol-4-ylmethoxy)-1H-indol-2-yl)methyl)-1-(trifluoromethyl)cyclopropane-1-carboxamide], the concentration for half-maximal inhibition (IC50) stood at 119 nM.
Turning to `CC1(C(=O)NCc2cc3cc(Cl)c(CCn4ncnn4)cc3[nH]2)CC1` [Compound 584, N-((6-(2-(2H-tetrazol-2-yl)ethyl)-5-chloro-1H-indol-2-yl)methyl)-1-methylcyclopropane-1-carboxamide], the half-inhibitory concentration (IC50) is 889 nM.
Regarding `CC1CCN(C(=O)NCc2cc3cc(Cl)c(OCc4ccon4)cc3[nH]2)C1` (stereo not drawn) [Compound 87, N-((5-chloro-6-(isoxazol-3-ylmethoxy)-1H-indol-2-yl)methyl)-3-methylpyrrolidine-1-carboxamide], the IC50 is 365 nM.
Next, `CC(=O)NCc1cc2cc(Cl)c(OC[C@H]3CCCO3)cc2[nH]1` [Compound 465, (R)-N-((5-chloro-6-((tetrahydrofuran-2-yl)methoxy)-1H-indol-2-yl)methyl)acetamide]: 6210 nM.
In the case of `C[C@@H]1CCN(C(=O)NCc2cc3cc(F)c(OCc4ccon4)cc3[nH]2)C1` [Compound 381, (R)-N-((5-fluoro-6-(isoxazol-3-ylmethoxy)-1H-indol-2-yl)methyl)-3-methylpyrrolidine-1-carboxamide], the concentration for half-maximal inhibition (IC50) turned out to be 339 nM.
Take `C[C@@H]1CCCN1C(=O)NCc1cc2cc(F)c(OCc3cscn3)cc2[nH]1` [Compound 386, (R)-N-((5-fluoro-6-(thiazol-4-ylmethoxy)-1H-indol-2-yl)methyl)-2-methylpyrrolidine-1-carboxamide]: the concentration for half-maximal inhibition (IC50) was determined as 174 nM.
On to `CC[C@@H](O)C(=O)NCc1cc2cc(Cl)c(OCc3cc(C)no3)cc2[nH]1` [Compound 241, (R)-N-((5-chloro-6-((3-methylisoxazol-5-yl)methoxy)-1H-indol-2-yl)methyl)-2-hydroxybutanamide], for which the concentration for half-maximal inhibition (IC50) was 1020 nM.
Regarding `CC(=O)NCc1cc2cc(Cl)c(OCC3CC3(F)F)cc2[nH]1` (stereo not drawn) [Compound 458, N-((5-chloro-6-((2,2-difluorocyclopropyl)methoxy)-1H-indol-2-yl)methyl)acetamide], the IC50 was found to be 7670 nM.
As for `O=C(NCc1cc2cc(F)c(CCc3cscn3)cc2[nH]1)N1CCCC1` [Compound 601, N-((5-fluoro-6-(2-(thiazol-4-yl)ethyl)-1H-indol-2-yl)methyl)pyrrolidine-1-carboxamide], the IC50 turned out to be 174 nM.
On to `CC1(C(=O)NCc2cc3cc(Cl)c(OCc4ccc5cc[nH]c5c4)cc3[nH]2)CC1` [Compound 350, N-((6-((1H-indol-6-yl)methoxy)-5-chloro-1H-indol-2-yl)methyl)-1-methylcyclopropane-1-carboxamide], for which the 50% inhibitory concentration (IC50) is more than 8380 nM.
In the case of `Cc1cc(COc2cc3[nH]c(CNC(=O)N4CCC4C(F)F)cc3cc2Cl)on1` (racemic) [Compound 581, (S)-N-((5-chloro-6-((3-methylisoxazol-5-yl)methoxy)-1H-indol-2-yl)methyl)-2-(difluoromethyl)azetidine-1-carboxamide and (R)-N-((5-chloro-6-((3-methylisoxazol-5-yl)methoxy)-1H-indol-2-yl)methyl)-2-(difluoromethyl)azetidine-1-carboxamide], the IC50 is 657 nM.
As to `CC1(C(=O)NCc2cc3cc(Cl)c(OCc4ccon4)c(F)c3[nH]2)CC1` [Compound 16, N-((5-chloro-7-fluoro-6-(isoxazol-3-ylmethoxy)-1H-indol-2-yl)methyl)-1-methylcyclopropane-1-carboxamide], the half-maximal inhibitory concentration (IC50) stood at 172 nM.
For the compound `CC1(C(=O)NCc2cc3cc(C4(F)CC4)c(OCc4cscn4)cc3[nH]2)CC1` [Compound 656, N-((5-(1-fluorocyclopropyl)-6-(thiazol-4-ylmethoxy)-1H-indol-2-yl)methyl)-1-methylcyclopropane-1-carboxamide], the concentration for half-maximal inhibition (IC50) was 8470 nM.
